Laboratory results published in BindingDB's records for doi:10.1038/sj.bjp.0702059 (Smithkline Beecham Pharmaceuticals, 1998).

Legend:
[1] = molecular target: 5-hydroxytryptamine receptor 1B (Homo sapiens, UniProt P28222)
[2] = molecular target: 5-hydroxytryptamine receptor 4 (Homo sapiens, UniProt Q13639)
[3] = molecular target: 5-hydroxytryptamine receptor 2B (Homo sapiens, UniProt P41595)
[4] = molecular target: 5-hydroxytryptamine receptor 2A (Homo sapiens, UniProt P28223)
[5] = molecular target: 5-hydroxytryptamine receptor 1E (Homo sapiens, UniProt P28566)
[6] = molecular target: 5-hydroxytryptamine receptor 7 (Homo sapiens, UniProt P34969)
[7] = molecular target: 5-hydroxytryptamine receptor 6 (Homo sapiens, UniProt P50406)
[8] = molecular target: T1, 5-hydroxytryptamine receptor 1F (Homo sapiens, UniProt P30939)
T1 sequence (P30939 whole entry): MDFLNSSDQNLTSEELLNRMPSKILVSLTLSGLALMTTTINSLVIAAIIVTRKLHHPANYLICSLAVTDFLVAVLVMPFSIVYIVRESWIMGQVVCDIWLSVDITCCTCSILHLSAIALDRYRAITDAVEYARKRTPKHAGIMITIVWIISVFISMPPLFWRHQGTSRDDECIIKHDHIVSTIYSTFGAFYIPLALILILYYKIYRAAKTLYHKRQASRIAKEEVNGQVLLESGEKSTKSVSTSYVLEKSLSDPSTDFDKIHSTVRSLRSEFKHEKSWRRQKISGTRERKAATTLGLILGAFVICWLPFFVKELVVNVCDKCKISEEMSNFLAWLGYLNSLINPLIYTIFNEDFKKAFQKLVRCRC

Sequence of 5-hydroxytryptamine receptor 2A (P28223 whole entry): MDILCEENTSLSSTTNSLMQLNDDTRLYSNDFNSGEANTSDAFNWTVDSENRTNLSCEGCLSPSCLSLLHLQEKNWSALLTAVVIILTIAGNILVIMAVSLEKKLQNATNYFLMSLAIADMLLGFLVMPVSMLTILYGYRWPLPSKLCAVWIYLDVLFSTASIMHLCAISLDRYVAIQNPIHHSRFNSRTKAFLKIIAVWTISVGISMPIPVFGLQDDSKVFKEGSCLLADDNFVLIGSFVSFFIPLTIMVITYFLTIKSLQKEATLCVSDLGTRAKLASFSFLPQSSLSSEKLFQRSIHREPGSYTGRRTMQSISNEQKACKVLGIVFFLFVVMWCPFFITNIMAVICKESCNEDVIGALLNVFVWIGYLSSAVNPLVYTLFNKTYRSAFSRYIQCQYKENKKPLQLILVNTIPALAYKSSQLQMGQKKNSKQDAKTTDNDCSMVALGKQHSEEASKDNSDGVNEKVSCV
Sequence of 5-hydroxytryptamine receptor 1B (P28222 whole entry): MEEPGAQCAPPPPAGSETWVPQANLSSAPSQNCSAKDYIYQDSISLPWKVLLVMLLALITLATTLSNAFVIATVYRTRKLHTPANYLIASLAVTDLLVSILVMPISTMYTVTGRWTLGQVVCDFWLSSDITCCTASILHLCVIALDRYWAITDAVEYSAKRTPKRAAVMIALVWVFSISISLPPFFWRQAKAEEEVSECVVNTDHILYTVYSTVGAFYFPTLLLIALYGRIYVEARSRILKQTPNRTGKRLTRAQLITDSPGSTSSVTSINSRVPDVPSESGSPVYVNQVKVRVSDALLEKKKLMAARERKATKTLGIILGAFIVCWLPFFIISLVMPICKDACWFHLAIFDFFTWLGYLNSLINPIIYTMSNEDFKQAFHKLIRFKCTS
Sequence of 5-hydroxytryptamine receptor 7 (P34969 whole entry): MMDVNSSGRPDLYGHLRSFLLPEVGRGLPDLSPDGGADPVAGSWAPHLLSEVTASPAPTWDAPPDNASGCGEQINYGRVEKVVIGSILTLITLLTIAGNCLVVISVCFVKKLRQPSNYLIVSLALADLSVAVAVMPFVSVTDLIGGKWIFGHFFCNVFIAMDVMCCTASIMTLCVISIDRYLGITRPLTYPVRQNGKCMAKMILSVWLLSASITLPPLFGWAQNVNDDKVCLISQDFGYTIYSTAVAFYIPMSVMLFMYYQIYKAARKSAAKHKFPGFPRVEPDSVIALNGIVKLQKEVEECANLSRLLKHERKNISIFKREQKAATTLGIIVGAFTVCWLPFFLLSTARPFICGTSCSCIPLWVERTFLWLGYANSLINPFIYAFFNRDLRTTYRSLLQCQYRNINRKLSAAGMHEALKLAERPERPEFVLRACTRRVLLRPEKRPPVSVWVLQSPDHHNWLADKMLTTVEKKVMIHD
Sequence of 5-hydroxytryptamine receptor 4 (Q13639 whole entry): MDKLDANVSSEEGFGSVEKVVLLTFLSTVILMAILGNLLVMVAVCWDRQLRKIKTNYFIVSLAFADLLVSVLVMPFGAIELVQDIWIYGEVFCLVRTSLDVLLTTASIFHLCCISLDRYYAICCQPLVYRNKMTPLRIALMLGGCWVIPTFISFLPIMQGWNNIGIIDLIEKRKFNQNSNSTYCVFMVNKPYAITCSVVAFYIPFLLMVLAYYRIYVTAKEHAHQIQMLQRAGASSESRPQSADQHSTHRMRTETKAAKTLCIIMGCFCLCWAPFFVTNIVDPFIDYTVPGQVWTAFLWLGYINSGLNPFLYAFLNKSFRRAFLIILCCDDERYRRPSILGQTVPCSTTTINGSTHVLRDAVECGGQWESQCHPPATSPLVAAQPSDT
Sequence of 5-hydroxytryptamine receptor 2B (P41595 whole entry): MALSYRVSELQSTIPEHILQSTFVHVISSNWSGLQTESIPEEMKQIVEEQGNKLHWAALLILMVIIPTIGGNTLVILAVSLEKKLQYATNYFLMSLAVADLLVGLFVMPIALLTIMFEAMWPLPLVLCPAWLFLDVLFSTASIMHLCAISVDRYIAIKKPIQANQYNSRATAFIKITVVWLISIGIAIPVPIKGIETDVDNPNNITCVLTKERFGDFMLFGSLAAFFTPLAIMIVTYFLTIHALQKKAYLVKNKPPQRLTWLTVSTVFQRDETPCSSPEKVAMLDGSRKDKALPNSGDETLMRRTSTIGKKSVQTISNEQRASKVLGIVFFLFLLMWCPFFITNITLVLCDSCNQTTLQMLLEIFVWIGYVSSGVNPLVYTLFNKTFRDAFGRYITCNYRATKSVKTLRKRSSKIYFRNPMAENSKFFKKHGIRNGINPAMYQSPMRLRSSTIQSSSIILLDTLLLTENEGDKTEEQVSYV
Sequence of 5-hydroxytryptamine receptor 6 (P50406 whole entry): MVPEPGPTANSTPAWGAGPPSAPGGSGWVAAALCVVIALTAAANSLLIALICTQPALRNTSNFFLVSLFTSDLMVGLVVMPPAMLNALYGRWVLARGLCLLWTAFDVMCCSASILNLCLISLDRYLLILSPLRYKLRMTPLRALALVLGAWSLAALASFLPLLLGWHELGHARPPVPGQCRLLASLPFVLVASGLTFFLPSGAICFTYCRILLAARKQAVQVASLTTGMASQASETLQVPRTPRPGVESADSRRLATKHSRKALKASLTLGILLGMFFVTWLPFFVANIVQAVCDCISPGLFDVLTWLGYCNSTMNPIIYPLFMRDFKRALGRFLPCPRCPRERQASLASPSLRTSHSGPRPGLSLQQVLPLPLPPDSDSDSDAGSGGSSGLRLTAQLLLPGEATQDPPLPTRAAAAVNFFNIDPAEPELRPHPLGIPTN
Sequence of 5-hydroxytryptamine receptor 1E (P28566 whole entry): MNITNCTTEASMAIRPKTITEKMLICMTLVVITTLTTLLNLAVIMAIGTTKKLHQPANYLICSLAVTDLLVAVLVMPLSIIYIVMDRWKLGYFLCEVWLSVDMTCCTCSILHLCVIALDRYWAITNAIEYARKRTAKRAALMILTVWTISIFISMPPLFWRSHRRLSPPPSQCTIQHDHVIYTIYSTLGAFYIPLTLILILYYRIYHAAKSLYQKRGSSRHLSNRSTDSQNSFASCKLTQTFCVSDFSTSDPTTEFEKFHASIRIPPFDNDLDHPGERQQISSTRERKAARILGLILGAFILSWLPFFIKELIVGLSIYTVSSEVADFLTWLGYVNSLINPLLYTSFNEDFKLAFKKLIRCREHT

| Ki [1] [nM] | Structure (SMILES) | Ki [2] [nM] | Ki [3] [nM] | Ki [4] [nM] | Ki [5] [nM] | Ki [6] [nM] | Ki [7] [nM] | Ki [8] [nM] |
| --- | --- | --- | --- | --- | --- | --- | --- | --- |
| 0.93 | COc1ccc(NC(=O)c2ccc(-c3ccc(-c4noc(C)n4)cc3C)cc2)cc1N1CCN(C)CC1 [SMR001230745] | – | – | – | – | – | – | – |
| – | Cc1nc(-c2ccc(-c3ccc(C(=O)N4CCc5cc6c(cc54)C4(CCN(C)CC4)CO6)cc3)c(C)c2)no1 [4-[2-methyl-4-(5-methyl-1,2,4-oxadiazol-3-yl)phenyl]phenyl-1'-methylspiro[3,5,6,7-tetrahydro-2H-furo[2,3-f]indole-3,4'-(hexahydropyridine)]-5-ylmethanone] | 2040 | 3160 | 1200 | > 10000 | 1000 | 2140 | > 10000 |
